ChEMBL document CHEMBL1201862, “PubChem BioAssay data set” (2004)
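Method: 48-hour compound exposure of cells in 96-well plates, five concentrations, linear interpolation of endpoints. GI50 = concentration required for 50% inhibition of growth.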 Activity calls are given as the source filed them. Cut-off read from the data, not from the text of the source: active = GI50 up to about 1.1 µM and inactive = higher.

How the values were obtained:
Assay in all cases: NCI tumour cell line growth inhibition, 48 h
A549 = system: A549
ACHN = system: ACHN
CAKI-1 = system: CAKI-1
DU-145 = system: DU-145
HCT-116 = system: HCT-116
HL-60 = system: HL-60
HT-29 = system: HT-29
IGROV-1 = system: IGROV-1
M14 = system: M14
NCI-H460 = system: NCI-H460
OVCAR-4 = system: OVCAR-4
OVCAR-8 = system: OVCAR-8
RXF 393 = system: RXF 393
SF-295 = system: SF-295
SN12C = system: SN12C
SNB-19 = system: SNB-19
SNB-75 = system: SNB-75
SW-620 = system: SW-620
UACC-257 = system: UACC-257
HOP-92 = system: HOP-92

SMILES	GI50 (A549)	GI50 (ACHN)	GI50 (CAKI-1)	GI50 (DU-145)	GI50 (HCT-116)	GI50 (HL-60)	GI50 (HT-29)	GI50 (IGROV-1)	GI50 (M14)	GI50 (NCI-H460)	GI50 (OVCAR-4)	GI50 (OVCAR-8)	GI50 (RXF 393)	GI50 (SF-295)	GI50 (SN12C)	GI50 (SNB-19)	GI50 (SNB-75)	GI50 (SW-620)	GI50 (UACC-257)	GI50 (HOP-92)
O=C1Nc2ccccc2/C1=N/Nc1ccccc1Cl	45.7 µM (inactive)	3.58 µM (inactive)	15.7 µM (inactive)	70 µM (inactive)	23.7 µM (inactive)	68.1 µM (inactive)	> 100 µM (inactive)	1.78 µM (inactive)	96.2 µM (inactive)	18.2 µM (inactive)	3.57 µM (inactive)	20.6 µM (inactive)	34.8 µM (inactive)	32.1 µM (inactive)	21.7 µM (inactive)	29.8 µM (inactive)	22.1 µM (inactive)	> 100 µM (inactive)	35.3 µM (inactive)	
CN(C)CCCCN1CCc2c(n(C)c3ccccc23)C1=O	64.7 µM (inactive)	> 77.1 µM (inactive)	> 55.8 µM (inactive)	> 84.5 µM (inactive)	40.3 µM (inactive)		24.3 µM (inactive)	> 72.6 µM (inactive)	18.5 µM (inactive)		> 86.7 µM (inactive)	> 83.4 µM (inactive)	31.5 µM (inactive)	48.4 µM (inactive)	68.1 µM (inactive)	> 76.9 µM (inactive)	34.1 µM (inactive)	44.4 µM (inactive)	17.2 µM (inactive)	32 µM (inactive)
CC(C)/C(Cl)=N\OC(=O)Nc1cccc(Cl)c1	18.4 µM (inactive)	6.22 µM (inactive)	17.7 µM (inactive)	22.5 µM (inactive)	18.1 µM (inactive)	1.71 µM (inactive)	15 µM (inactive)	18.6 µM (inactive)	0.305 µM (active)	13.7 µM (inactive)	13.3 µM (inactive)	15.4 µM (inactive)	18.5 µM (inactive)	36.1 µM (inactive)	16.1 µM (inactive)	> 100 µM (inactive)	13.9 µM (inactive)	2.97 µM (inactive)	13.6 µM (inactive)	
O=c1[nH]nc(Cc2ccccc2)n1O	> 100 µM (inactive)	> 100 µM (inactive)	> 100 µM (inactive)	> 100 µM (inactive)	> 100 µM (inactive)	> 100 µM (inactive)	> 100 µM (inactive)	> 100 µM (inactive)			> 100 µM (inactive)	> 100 µM (inactive)		> 100 µM (inactive)	> 100 µM (inactive)	> 100 µM (inactive)		> 100 µM (inactive)	> 100 µM (inactive)	> 100 µM (inactive)
COc1cccc2c1-c1c(OC)cccc1SS2	14.4 µM (inactive)	41.8 µM (inactive)	25.2 µM (inactive)	28.9 µM (inactive)	18.2 µM (inactive)	1.01 µM (active)	17.3 µM (inactive)	17.4 µM (inactive)	27 µM (inactive)	18.2 µM (inactive)	21.8 µM (inactive)	25.9 µM (inactive)	17.5 µM (inactive)	19.9 µM (inactive)	13.8 µM (inactive)	24.8 µM (inactive)		20.4 µM (inactive)	11.6 µM (inactive)	19.9 µM (inactive)
C=CCOc1ccc(C(=N/NC(=O)c2ccccc2)/N=N/c2ccc(C)cc2)cc1OC	26.2 µM (inactive)	34.8 µM (inactive)	40.8 µM (inactive)	37.2 µM (inactive)	19 µM (inactive)	4.83 µM (inactive)	20.3 µM (inactive)	18.7 µM (inactive)	22.7 µM (inactive)	18.4 µM (inactive)	37.9 µM (inactive)	25.4 µM (inactive)		32 µM (inactive)	31.7 µM (inactive)	50 µM (inactive)	20.2 µM (inactive)	31.4 µM (inactive)	19.6 µM (inactive)	8.79 µM (inactive)
CCOP(=O)(OCC)OC1c2[nH]ccc2-c2cc(C(=O)OC)[nH]c2C1OC (configuration not stated)	> 100 µM (inactive)	> 100 µM (inactive)	70.3 µM (inactive)	> 100 µM (inactive)	> 100 µM (inactive)	62.1 µM (inactive)	> 100 µM (inactive)	> 100 µM (inactive)	> 100 µM (inactive)	56.8 µM (inactive)	> 100 µM (inactive)	> 100 µM (inactive)	> 100 µM (inactive)	> 100 µM (inactive)	> 100 µM (inactive)	> 100 µM (inactive)	89.3 µM (inactive)	> 100 µM (inactive)	> 100 µM (inactive)	
COc1ccc(/C=N/N=C(\N)NO)c(OC)c1OC	13.3 µM (inactive)	21.2 µM (inactive)	54.3 µM (inactive)	12.8 µM (inactive)	20.1 µM (inactive)	23.1 µM (inactive)	20.8 µM (inactive)	36.6 µM (inactive)	44.4 µM (inactive)	33 µM (inactive)	53.7 µM (inactive)	15 µM (inactive)	30.1 µM (inactive)	31.6 µM (inactive)	34.4 µM (inactive)	> 100 µM (inactive)		46.2 µM (inactive)		11.1 µM (inactive)
O=CNCCCN1CCN(CCCNC=O)CC1	> 100 µM (inactive)	> 100 µM (inactive)	> 100 µM (inactive)	> 100 µM (inactive)	> 100 µM (inactive)	> 100 µM (inactive)	> 100 µM (inactive)	> 100 µM (inactive)	> 100 µM (inactive)		> 100 µM (inactive)	> 100 µM (inactive)		> 100 µM (inactive)	> 100 µM (inactive)	> 100 µM (inactive)		> 100 µM (inactive)	> 100 µM (inactive)	> 100 µM (inactive)
O=C(NN=C1CCN(Cc2ccccc2)CC1)C(O)(c1ccccc1)c1ccccc1	> 100 µM (inactive)			> 100 µM (inactive)	> 100 µM (inactive)	> 100 µM (inactive)	> 100 µM (inactive)	> 100 µM (inactive)	> 100 µM (inactive)		> 100 µM (inactive)	> 100 µM (inactive)	> 100 µM (inactive)	> 100 µM (inactive)	> 100 µM (inactive)	> 100 µM (inactive)	> 100 µM (inactive)	> 100 µM (inactive)	> 100 µM (inactive)	> 100 µM (inactive)
Cc1cc(NN)nc2[nH]nc(N)c12	> 100 µM (inactive)	> 100 µM (inactive)	> 100 µM (inactive)	> 100 µM (inactive)	> 100 µM (inactive)		> 100 µM (inactive)	> 100 µM (inactive)	> 100 µM (inactive)	> 100 µM (inactive)	> 100 µM (inactive)	> 100 µM (inactive)	> 100 µM (inactive)	> 100 µM (inactive)	> 100 µM (inactive)	> 100 µM (inactive)	> 100 µM (inactive)	> 100 µM (inactive)	> 100 µM (inactive)	> 100 µM (inactive)
COC(=O)C(=O)C(C(=O)C(=O)Nc1cccc(OC)c1)c1nc2ccc(Cl)cc2nc1O (configuration not stated)	> 100 µM (inactive)	> 100 µM (inactive)	> 100 µM (inactive)	> 100 µM (inactive)	> 100 µM (inactive)	> 100 µM (inactive)	> 100 µM (inactive)	> 100 µM (inactive)	> 100 µM (inactive)	> 100 µM (inactive)	> 100 µM (inactive)	> 100 µM (inactive)		> 100 µM (inactive)	> 100 µM (inactive)	> 100 µM (inactive)	> 100 µM (inactive)	> 100 µM (inactive)	> 100 µM (inactive)	74.5 µM (inactive)
CC1(C)OCC2OC3([C@@H]4OC(C)(C)O[C@H]4CO)OC(C)(C)OC3C2O1 (some centres not stated)	> 100 µM (inactive)	> 100 µM (inactive)	> 100 µM (inactive)	> 100 µM (inactive)	> 100 µM (inactive)			> 100 µM (inactive)	> 100 µM (inactive)	> 100 µM (inactive)	> 100 µM (inactive)	> 100 µM (inactive)	> 100 µM (inactive)	> 100 µM (inactive)	> 100 µM (inactive)	> 100 µM (inactive)	> 100 µM (inactive)	> 100 µM (inactive)	> 100 µM (inactive)	> 100 µM (inactive)
C#CCOC(=O)C(N)CS (configuration not stated)	> 100 µM (inactive)	> 100 µM (inactive)	> 100 µM (inactive)	> 100 µM (inactive)	> 100 µM (inactive)	> 100 µM (inactive)	> 100 µM (inactive)	> 100 µM (inactive)	> 100 µM (inactive)			> 100 µM (inactive)	> 100 µM (inactive)	> 100 µM (inactive)	> 100 µM (inactive)		> 100 µM (inactive)	> 100 µM (inactive)	> 100 µM (inactive)	> 100 µM (inactive)
CCC(CCCCC1CC[C@H]2CC(=O)C[C@@H]12)OC (some centres not stated)	> 100 µM (inactive)	> 100 µM (inactive)	> 100 µM (inactive)	> 100 µM (inactive)	> 100 µM (inactive)	36.7 µM (inactive)	> 100 µM (inactive)	> 100 µM (inactive)		> 100 µM (inactive)		> 100 µM (inactive)	> 100 µM (inactive)	> 100 µM (inactive)	> 100 µM (inactive)	> 100 µM (inactive)	> 100 µM (inactive)	> 100 µM (inactive)	72.3 µM (inactive)	> 100 µM (inactive)
